How the values were obtained:
[1] = test system: tetradecanoylphorbol 13-acetate (TPA) induced ear edema; experiment: TPA-induced ear edema model; type: in vivo, mice; conditions: for AUC reduction (%) TPA: 10 μg one single s.c. injection 20 minutes before TPA, compared to PBS control; for Peak reduction (%) TPA: 10 μg subcutaneously 20 minutes before induction of edema; for Reduction of AUC compared to PBS: Study A / FIG. 1, one single injection (i.p. in Study A, s.c. in FIG. 1) 20 min before TPA, day 0; for AUC reduced: Study J; for Differences in AUC: Study L dose response
Protocol: A stock solution of TPA was prepared by dissolving TPA in DMSO, 1 mg/mL, and was stored frozen at −80° C. For study B-E, a working solution was prepared with 200 μL of the TPA stock solution added to 800 μL acetone. The working solution was used the same day as it was prepared.
Each cage was identified by a cage card marked with study number, group number, ethical approval number, sex and animal ear numbers. The animals were individually marked on the tail with transverse lines corresponding to the animals' number, using a permanent-ink felt pen. An illustration of the protocols used for the different treatments is outlined in Table 4. The compounds were tested according to the same protocols with necessary modifications.
Intraperitoneal (i.p.) injections were performed by giving 100 μL in the lower right quadrant of the abdomen. Subcutaneous injections were done with 100 μL in the neck region. Intranasal administration was performed by letting the mouse inhale droplets into the nostrils, total volume 40 μL. All administrations were done on non-anesthetized mice.
(§1) Both outer ears of a non-anesthetized mouse were washed with mild soap (Palmolive, Sweden) using a soft tooth brush, the ears were dried with tissue and cleaned with tissue soaked with acetone. After allowing the acetone to evaporate, TPA or AA was applied on both sides, 10 μL, on each side of the ear with care to cover the whole ear. The mouse was held for 20 seconds to allow the solvent to evaporate.
Intraperitoneal injections were given in the lower right quadrant of the abdomen with the animal held in a supine position. Subcutaneous (s.c.) injections were given in the neck of the animals. Intranasal administrations were given to mice held in a slightly reclining position. With an adjustable micro-pipette 40 μL of the test substance was given in droplets on the nostrils and the mouse was allowed to aspirate at free will.
(§2) The ears of non-anesthetized mice were measured at different time points for up to 96 hours after the TPA was administered, or up to 24 hours for the AA model. The first measurements were done before the edema was induced. The thickness was recorded with a spring loaded dial micrometer (Limit, Thickness Gauge, accuracy 0.01 mm, contact area Ø6 mm, Luna AB, Allingsås, Sweden) in triplicates at all time points per ear.
(§3) The average thickness for both ears on a mouse was calculated and compared to the average thickness of the ears at the starting time point. The value obtained at the start of the experiment was set as 100%. The peak values and area under the curve (AUC) values for the treatment groups were calculated and compared to the inflamed control group, treated with PBS (set as 100%), and expressed as a percentage change (Δ% AUC).
(§4) Area under the curve (AUC) with base line set as 100 was calculated using GraphPad Prism version 4.03 for Windows (GraphPad Software, San Diego Calif. USA, www.graphpad.com).
AUC reduction and P-values were calculated against the positive control (TPA or AA+PBS).

[2] = test system: arachidonic acid (AA) induced ear edema; experiment: Arachidonic acid (AA) induced ear edema model; type: in vivo, mice; conditions: for AUC reduction (%) AA: 10 μg one single s.c. injection 20 minutes before AA, compared to PBS control; for Peak reduction (%) AA: 10 μg subcutaneously 20 minutes before induction of edema
Protocol: A stock solution of AA was prepared by diluting AA in acetone, 4 mg/10 μL, and was stored frozen at −80° C. A final working solution, 1 mg/10 μL, in acetone was prepared. The working solution was used within one hour after preparation.
as §1, §2, §3, §4
In addition to the experiments done with the control compounds and IDX0001, all other test compounds were investigated in a similar fashion in the TPA and/or AA ear edema models, where the test compounds were given subcutaneously (10 μg) 20 minutes before induction of edema. The results were expressed as reduction of peak value and reduction of area under curve (AUC) in Table 5.

[3] = Study F, equal doses 50 μg s.c. same day as swelling induced
[4] = Study B, 100 μg s.c. 4 days before induction of edema
[5] = Study C (repeat of B), 100 μg s.c. 4 days before induction of edema
[6] = Study D, 100 μg s.c. 2 days before induction of edema
[7] = Study E, 100 μg s.c. same day, approx. 20 min before induction
[8] = Study G, therapeutic, 100 μg s.c. 2 hours after induction of edema
[9] = Study H, 100 μg intranasal 4 days before swelling induced
[10] = Study I, 100 μg intranasal day 0, same day as edema induced
[11] = therapeutic, 100 μg intranasal 2 hours after induction

Molecule: G*G*G*GCGTCTGCC*G*G*G (GGGGCGTCTGCCGGG; DNA, linkages s3 o8 s3 (s phosphorothioate, o phosphodiester), methylation of C not given here) [IDX9051, oligonucleotide; * = phosphorothioate modification]
- AUC reduction (%) TPA [1]: −54.0%
- Peak reduction (%) TPA [1]: −29.5%
- AUC reduction (%) AA [2]: −67.5%
- Peak reduction (%) AA [2]: −17.7%

Molecule: T*G*C*CATTCGTCGTTCTCGTC*G*T*T (phosphorothioate linkages, as printed in the source, key not given here) [IDX9024, oligonucleotide; * = phosphorothioate modification]
- AUC reduction (%) TPA [1]: −47.3%
- Peak reduction (%) TPA [1]: −30.9%
- AUC reduction (%) AA [2]: −58.5%
- Peak reduction (%) AA [2]: −14.4%

Molecule: O=C1CCN(c2ccccc2)N1 [Phenidone]
- reduction of AUC ([2]; FIG. 4, phenidone given 30 min before AA, IDX0150 given 20 min before AA): −39.1%

Molecule: T*C*C*A*T*G*A*C*G*T*T*C*C*T*G*A*C*G*T*T [IDX0920]
- Reduction of AUC compared to PBS ([1]; 50 μg): −22.1%
- reduction of AUC ([1]; Study B, 50 μg s.c. 4 days before induction of edema): −19.3%
- reduction of AUC ([1]; Study C (repeat of B), 50 μg s.c. 4 days before induction of edema): −3%
- reduction of AUC ([1]; Study D, 50 μg s.c. 2 days before induction of edema): −19.1%
- reduction of AUC ([1]; Study E, 50 μg s.c. same day, approx. 20 min before induction): −19.4%
- reduction of AUC [1, 3]: −17%
- reduction of AUC ([1]; Study G, therapeutic, 50 μg s.c. 2 hours after induction of edema): −43.8%
- reduction of AUC ([1]; Study H, 50 μg intranasal 4 days before swelling induced): −33.8%
- reduction of AUC ([1]; Study I, 50 μg intranasal day 0, same day as edema induced): −27.3%
- AUC reduced ([1]; therapeutic, 50 μg intranasal 2 hours after induction): −28.7%

Molecule: T*C*C*GATCGTCC*A*G*G (TCCGATCGTCCAGG; DNA, linkages s3 o7 s3 (s phosphorothioate, o phosphodiester), methylation of C not given here) [IDX9078]
- AUC reduction (%) TPA [1]: −41.3%
- Peak reduction (%) TPA [1]: −26.1%
- AUC reduction (%) AA [2]: −79.4%
- Peak reduction (%) AA [2]: −16.4%

Molecule: G*G*A*ACAGTTGCTCCAT*G*G*C (as printed in the source, key not given here) [IDX0526, negative control, having the CpG motif substituted with a GC]
- Differences in AUC ([1]; 0.1 μg, one single i.n. (Table 4) day 0): +1.24%
- Differences in AUC ([1]; 100 μg, one single i.n. (Table 4) day 0): +6.18%
- anti-swelling activity ([1]; Study L, 0.1-100 μg): no anti-swelling activity

Molecule: T*C*C*GCGTTCGGCCTCCTGGCG*C*G*G (phosphorothioate linkages, as printed in the source, key not given here) [IDX0001, oligonucleotide; * = phosphorothioate modification]
- Reduction of AUC compared to PBS ([1]; 100 μg): −15.7%
- reduction of AUC [1, 4]: −16.3%
- reduction of AUC [1, 5]: −17.9%
- reduction of AUC [1, 6]: −12.4%
- reduction of AUC [1, 7]: −16.7%
- reduction of AUC [1, 3]: −13.2%
- reduction of AUC [1, 8]: −17.9%
- reduction of AUC [1, 9]: −25.7%
- reduction of AUC [1, 10]: −6.4%
- AUC reduced [1, 11]: −25.2%

Molecule: T*C*C*CAAGATCGTCC*A*G*G (phosphorothioate linkages, as printed in the source, key not given here) [IDX9076, oligonucleotide; * = phosphorothioate modification]
- AUC reduction (%) TPA [1]: −5.1%
- Peak reduction (%) TPA [1]: −2.6%
- AUC reduction (%) AA [2]: −45.7%
- Peak reduction (%) AA [2]: −20.1%

Molecule: T*C*G*TCTGCTTAGTTCGTTA*G*T*T (TCGTCTGCTTAGTTCGTTAGTT; DNA, linkages s3 o15 s3 (s phosphorothioate, o phosphodiester), methylation of C not given here) [IDX9087]
- AUC reduction (%) TPA [1]: −40.2%
- Peak reduction (%) TPA [1]: +0.9%

Molecule: G*G*A*A*C*A*G*T*T*C*G*T*C*C*A*T*G*G*C (as printed in the source, key not given here) [IDX0500]
- reduction of AUC ([1]; Study N, 0.005 μg, one single i.n. (Table 4) day 0): −15%
- reduction of AUC ([1]; Study N, 0.01 μg, one single i.n. (Table 4) day 0): −15.3%
- reduction of AUC ([1]; Study N, 0.1 μg, one single i.n. (Table 4) day 0): −18.2%
- reduction of AUC ([1]; Study N, 1 μg, one single i.n. (Table 4) day 0): −54.1%
- reduction of AUC ([1]; Study O, 10 μg given s.c. on day 0 (Table 4: i.n.)): −25.5%

Molecule: G*G*G*GAACAGTTCGTCCAT*G*G*C (phosphorothioate linkages, as printed in the source, key not given here) [IDX0955, oligonucleotide used as control; * = phosphorothioate modification]
- Reduction of AUC compared to PBS ([1]; 100 μg): −4.8%
- reduction of AUC [1, 4]: −22.7%
- reduction of AUC [1, 5]: −24.3%
- reduction of AUC [1, 6]: −17.8%
- reduction of AUC [1, 7]: −17.7%
- reduction of AUC [1, 3]: −18.3%
- reduction of AUC [1, 8]: −40.7%
- reduction of AUC [1, 9]: −17.4%
- reduction of AUC [1, 10]: −28.8%
- AUC reduced [1, 11]: −17.2%

Molecule: T*C*C*ATGGTCAGGGTCCCGG*G*G*G (TCCATGGTCAGGGTCCCGGGGG; DNA, linkages s3 o15 s3 (s phosphorothioate, o phosphodiester), methylation of C not given here) [IDX9064, oligonucleotide; * = phosphorothioate modification]
- AUC reduction (%) TPA [1]: −59.7%
- Peak reduction (%) TPA [1]: −41.7%

Source: patent US8410068B2, “Compounds for the treatment or alleviation of edema, and methods for their use” (Index Pharmaceuticals AB, priority 2007, dated 2013)
